This note sets out measurements from patent US10463651B2, “3-(1H-pyrrolo[3,2-C]pyridin-2-YL)-1H-indazoles and therapeutic uses thereof” (Samumed, LLC, priority 2015, dated 2019).

Molecules are shown by their SMILES.

Common to all, as to assay type: cell-based
Assay [1] deals with primary human mesenchymal stem cells (hMSCs). In words: Induction of chondrogenesis in hMSCs (Rhodamine B / Nile Red nodule imaging). The note with it: for EC50: concentration required to induce 50% levels of chondrogenesis vs TGF-β3 positive control, read-out: Conc (nM) of 50% TGF-β3 activity; for Emax: maximum activity relative to TGF-β3 (10 ng/mL) positive control, read-out: Max. Activity as % TGF-β3 activity. Put shortly:
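Primary hMSCs at passage 3-6 were treated with compound; nodule area per well was normalized to the mean of 3 DMSO wells, averaged over 2-3 replicates, and the concentration giving 50% chondrogenesis relative to TGF-β3 control, plus maximum activity and its dose, was derived.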

Assay [2] concerns Wnt activity (Sp5-Luc reporter, SW480 colon carcinoma cells). In words: Screening assay for Wnt activity (Sp5-Luc reporter gene assay in SW480 cells). To be noted: Homo sapiens; for EC50: Sp5-Luc reporter, SW480 cells, incubated overnight. In short, it runs like this:
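SW480 colon carcinoma cells stably carrying Sp5 promoter (eight TCF/LEF sites)-driven firefly luciferase, plated at 4,000 cells/well in 1% FBS medium and incubated overnight at 37° C. Luminescence normalised to DMSO-only cells; EC50 from four-parameter variable-slope nonlinear regression.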

For assay [3], the system named is SW480 colon cancer cells. The assay can be described thus: Cell viability assay (CellTiter-Blue). The note with it: Homo sapiens; for EC50: 96 h, SW480 cell viability, four days, CellTiter-Blue. In short, it runs like this: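 Fluorescence from resazurin reduced to resorufin by metabolically active cells was the read-out, taken after ~3 h with CellTiter-Blue.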
Assay [4] has as its system IL-6 (THP-1 cells). In words: IL-6 inhibition in LPS-stimulated THP-1 cells (HTRF). The note with it: Homo sapiens; for EC50: IL6 by HTRF, THP-1 cells, 500 ng/mL LPS, 22 hours; for inhibition at 10 µM: THP-1, read-out: percent inhibition at 10 M. In short, it runs like this:
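THP-1 cells, pre-cultured 24 h in 1% FBS medium, treated with compound 2 h at 37 °C, then stimulated with 500 ng/mL LPS for 22 h. Secreted IL-6 measured by HTRF as the 665/620 nm ratio. Values normalized to DMSO; EC50 from four-parameter fit, duplicates.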

The subject of assay [5] is primary human fibroblasts derived from IPF patients (LL29 cells) treated with TGF-β1. In words: Inhibition of the fibrotic process (αSMA staining) in TGF-β1-treated fibroblasts. The note with it: Fibroblast, 96 h; for EC50: % αSMA-positive LL29 cells, TGF-β1 20 ng/mL, 4 days. Put shortly: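 LL29 fibroblasts from IPF patients, 1,500 cells/well in F12 with 1% FBS, stimulated with TGF-β1; TGF-β1 plus DMSO wells as controls. Incubation 4 days, then SYTOX green 1 μM final for 30 min at room temperature. Fibrotic response read as αSMA staining.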

In the case of `CCNCc1cncc(-c2ccc3[nH]nc(-c4cc5cnccc5[nH]4)c3c2)c1` [Compound 258, N-((5-(3-(1H-Pyrrolo[3,2-c]pyridin-2-yl)-1H-indazol-5-yl)pyridin-3-yl)methyl)ethanamine], the EC50 in assay [1] amounted to 10 nM; in assay [2], 1040 nM; in assay [3], 844 nM; in assay [4], 451 nM; in assay [5], 1260 nM. The Emax in assay [1] is 317%.
`CC(C)C(=O)Nc1cncc(-c2ccc3[nH]nc(-c4cc5cnccc5[nH]4)c3c2)c1` [Compound 261, N-(5-(3-(1H-Pyrrolo[3,2-c]pyridin-2-yl)-1H-indazol-5-yl)pyridin-3-yl)isobutyramide]: the EC50 in assay [1] was 2700 nM; in assay [2], 140 nM; in assay [3] it was 333 nM; in assay [4], 343 nM; in assay [5], 362 nM. In addition, the Emax in assay [1] stood at 181%.
Turning to `O=C(Cc1ccccc1)Nc1cncc(-c2ccc3[nH]nc(-c4cc5cnccc5[nH]4)c3c2)c1` [Compound 262, N-(5-(3-(1H-Pyrrolo[3,2-c]pyridin-2-yl)-1H-indazol-5-yl)pyridin-3-yl)-2-phenylacetamide], the EC50 came out at 10 nM in assay [1]; 1760 nM in assay [2]; 3490 nM in assay [3]; 1700 nM in assay [4]; 757 nM in assay [5]. Also, in assay [1], the Emax turned out to be 119%.
In the case of `c1cc2[nH]c(-c3n[nH]c4ccc(-c5cncc(CN6CCCC6)c5)cc34)cc2cn1` [Compound 266, 5-(5-(Pyrrolidin-1-ylmethyl)pyridin-3-yl)-3-(1H-pyrrolo[3,2-c]pyridin-2-yl)-1H-indazole], the Emax in assay [1] was 26%. Moreover, the EC50 stood at 790 nM in assay [2], 514 nM in assay [3], 380 nM in assay [4] and 1850 nM in assay [5].
Turning to `c1cc2[nH]c(-c3n[nH]c4ccc(-c5cncc(CN6CCCCC6)c5)cc34)cc2cn1` [Compound 267, 5-(5-(Piperidin-1-ylmethyl)pyridin-3-yl)-3-(1H-pyrrolo[3,2-c]pyridin-2-yl)-1H-indazole], the EC50 in assay [1] turned out to be 100 nM; in assay [2] it was 685 nM; in assay [3] it was 422 nM; in assay [4], 288 nM; in assay [5] it was 571 nM. Besides, the Emax in assay [1] is 122%.
Turning to `CC(C)(C)CC(=O)Nc1cncc(-c2ccc3[nH]nc(-c4cc5cnccc5[nH]4)c3c2)c1` [Compound 268, N-(5-(3-(1H-Pyrrolo[3,2-c]pyridin-2-yl)-1H-indazol-5-yl)pyridin-3-yl)-3,3-dimethylbutanamide], the EC50 in assay [1] is 10 nM; in assay [2], 120 nM; in assay [3], 236 nM; in assay [4], 94 nM; in assay [5], 199 nM. Further, the Emax in assay [1] was 208%.
Turning to `CCCCC(=O)Nc1cncc(-c2ccc3[nH]nc(-c4cc5cnccc5[nH]4)c3c2)c1` [Compound 271, N-(5-(3-(1H-Pyrrolo[3,2-c]pyridin-2-yl)-1H-indazol-5-yl)pyridin-3-yl)pentanamide], the EC50 in assay [1] was 900 nM; in assay [2], 275 nM; in assay [3], 491 nM; in assay [4] it was 149 nM; in assay [5] it was 192 nM. For the same molecule, the Emax in assay [1] came to 67%.
For `O=C(Nc1cncc(-c2ccc3[nH]nc(-c4cc5cnccc5[nH]4)c3c2)c1)C1CCC1` [Compound 273, N-(5-(3-(1H-Pyrrolo[3,2-c]pyridin-2-yl)-1H-indazol-5-yl)pyridin-3-yl)cyclobutanecarboxamide], the EC50 is 10 nM in assay [1]; 75 nM in assay [2]; 441 nM in assay [3]; 118 nM in assay [4]; 95 nM in assay [5]. In assay [1], the Emax is 213%.
Consider `O=C(Nc1cncc(-c2ccc3[nH]nc(-c4cc5cnccc5[nH]4)c3c2)c1)C1CCCCC1` [Compound 275, N-(5-(3-(1H-Pyrrolo[3,2-c]pyridin-2-yl)-1H-indazol-5-yl)pyridin-3-yl)cyclohexanecarboxamide], for which the EC50 in assay [1] is 30 nM; in assay [2], 285 nM; in assay [3], 255 nM; in assay [4], 77 nM; in assay [5] it was 110 nM. In assay [1], the Emax worked out at 155%.
Regarding `c1cc2[nH]c(-c3n[nH]c4ccc(-c5cncnc5)cc34)cc2cn1` [Compound 279, 5-(Pyrimidin-5-yl)-3-(1H-pyrrolo[3,2-c]pyridin-2-yl)-1H-indazole], in assay [1], the Emax turned out to be 22%. In addition, the EC50 in assay [2] came out at 1480 nM; in assay [3], 2300 nM; in assay [4] it was 1840 nM; in assay [5] it was 686 nM.
In the case of `Cc1ccncc1-c1ccc2[nH]nc(-c3cc4c(-c5ccoc5)nccc4[nH]3)c2c1` [Compound 313, 3-(4-(Furan-3-yl)-1H-pyrrolo[3,2-c]pyridin-2-yl)-5-(4-methylpyridin-3-yl)-1H-indazole], the EC50 in assay [1] was 2700 nM; in assay [2] it was 614 nM; in assay [3] it was 1580 nM; in assay [4], 649 nM; in assay [5], 286 nM. For the same molecule, the Emax in assay [1] came to 153%.
As for `c1cc2[nH]c(-c3n[nH]c4ccc(-c5cncc(CN6CCCCC6)c5)cc34)cc2c(-c2ccoc2)n1` [Compound 323, 3-(4-(Furan-3-yl)-1H-pyrrolo[3,2-c]pyridin-2-yl)-5-(5-(piperidin-1-ylmethyl)pyridin-3-yl)-1H-indazole], the EC50 was 10 nM in assay [1]; 890 nM in assay [2]; 3420 nM in assay [3]; greater than 10000 nM in assay [4]; 1150 nM in assay [5]. Also, the Emax in assay [1] worked out at 177%. In assay [4], the inhibition at 10 µM turned out to be 16.6%.
As for `c1ncc(-c2ccc3[nH]nc(-c4cc5c(-c6ccoc6)nccc5[nH]4)c3c2)cn1` [Compound 335, 3-(4-(Furan-3-yl)-1H-pyrrolo[3,2-c]pyridin-2-yl)-5-(pyrimidin-5-yl)-1H-indazole], the Emax in assay [1] stood at 40%. Also, the EC50 in assay [2] stood at 1910 nM; in assay [3] it was 438 nM; in assay [4] it was 508 nM; in assay [5], 349 nM.
For the molecule `Cc1ccncc1-c1ccc2[nH]nc(-c3cc4c(-c5cc(F)cc(CNS(C)(=O)=O)c5)nccc4[nH]3)c2c1` [Compound 481, N-(3-Fluoro-5-(2-(5-(4-methylpyridin-3-yl)-1H-indazol-3-yl)-1H-pyrrolo[3,2-c]pyridin-4-yl)benzyl)methanesulfonamide], the EC50 in assay [1] turned out to be 300 nM; in assay [2], 304 nM; in assay [3], 500 nM; in assay [4], 103 nM; in assay [5], 528 nM. In assay [1], the Emax worked out at 267%.
As to `CC(C)Nc1cncc(-c2ccc3[nH]nc(-c4cc5c(-c6cc(F)cc(CNS(C)(=O)=O)c6)nccc5[nH]4)c3c2)c1` [Compound 488, N-(3-Fluoro-5-(2-(5-(5-(isopropylamino)pyridin-3-yl)-1H-indazol-3-yl)-1H-pyrrolo[3,2-c]pyridin-4-yl)benzyl)methanesulfonamide], the EC50 in assay [1] was found to be 300 nM; in assay [2], 151 nM; in assay [3] it was 358 nM; in assay [4] it was 40 nM; in assay [5], 125 nM. Besides, the Emax in assay [1] was 191%.
In the case of `CS(=O)(=O)NCc1cc(F)cc(-c2nccc3[nH]c(-c4n[nH]c5ccc(-c6ccncc6)cc45)cc23)c1` [Compound 494, N-(3-Fluoro-5-(2-(5-(pyridin-4-yl)-1H-indazol-3-yl)-1H-pyrrolo[3,2-c]pyridin-4-yl)benzyl)methanesulfonamide], the EC50 is 900 nM in assay [1]; greater than 10000 nM in assay [2]; greater than 10000 nM in assay [3]; greater than 10000 nM in assay [4]; greater than 10000 nM in assay [5]. For the same molecule, the Emax in assay [1] worked out at 66%. Moreover, the inhibition at 10 µM in assay [2] (SW480, read-out: percent inhibition at 10 μM) worked out at 19%; in assay [3] (SW480, 96 h, read-out: percent inhibition at 10 μM), 9.5%; in assay [4] it was 44.6%; in assay [5] (read-out: percent inhibition at 10 μM) it was 0%.
As to `CS(=O)(=O)NCc1cc(F)cc(-c2nccc3[nH]c(-c4n[nH]c5ccc(-c6cncc(CN7CCC(F)(F)C7)c6)cc45)cc23)c1` [Compound 502, N-(3-(2-(5-(5-((3,3-Difluoropyrrolidin-1-yl)methyl)pyridin-3-yl)-1H-indazol-3-yl)-1H-pyrrolo[3,2-c]pyridin-4-yl)-5-fluorobenzyl)methanesulfonamide], the EC50 in assay [1] is 300 nM; in assay [2] it was 172 nM; in assay [3] it was 230 nM; in assay [4], 63 nM; in assay [5] it was 160 nM. The Emax in assay [1] turned out to be 175%.
